The subject of this assay is VEGF-stimulated ADSC/ECFC co-culture, nuclear area imaging. The assay is described as follows: nuclear area loss in endothelial-stromal co-culture, dose response, cell-based, VEGF stimulation, IC50 (AID 1117324).

Molecules are shown by their SMILES. Calls of active or inactive are those of the source. How the calls were made is not given here. A value given as a limit tells only on which side of the number the result lay.

As a reminder, the IC50 is the point on the concentration scale where inhibition reaches its midpoint.

As for `C=C(C)[C@H]1Cc2c(ccc3c2O[C@@H]2COc4cc(OC)c(OC)cc4[C@@H]2C3=O)O1`, the IC50 is > 10 µM (inactive).

Take `CCCCCCCCOc1ccccc1C(=O)Nc1ccc(C(=O)OCC[N+](C)(CC)CC)cc1`: the IC50 is 8.47 µM (inactive).

As for `C[S+](CC[C@H](N)C(=O)O)C[C@H]1O[C@@H](n2cnc3c(N)ncnc32)[C@H](O)[C@H]1O` (stereo not given in full), the IC50 was > 10 µM (inactive).

For the molecule `CCCCCCCC(=O)OCC(COC(=O)CCCCCCC)OC(=O)CCCCCCC`, the IC50 is > 10 µM (inactive).

For `CC=CC1C(C(=O)OCc2c(F)c(F)c(COC)c(F)c2F)C1(C)C` (stereo not given), the IC50 was > 10 µM (inactive).

Consider `CN[C@@H]1C[C@@H](c2ccc(Cl)c(Cl)c2)c2ccccc21`, for which the IC50 is > 10 µM (inactive).

As for `Oc1c(I)cc(Cl)c2cccnc12`, the IC50 was > 10 µM (inactive).

On to `CS(=O)(=O)CCNCc1ccc(-c2ccc3ncnc(Nc4ccc(OCc5cccc(F)c5)c(Cl)c4)c3c2)o1`, for which the IC50 is > 10 µM (inactive).

As to `Cc1cc(N)c2ccccc2[n+]1CCCCCCCCCC[n+]1c(C)cc(N)c2ccccc21`, the IC50 is > 10 µM (inactive).

With `CN(C)CCOC1=Cc2ccccc2Sc2ccc(Cl)cc21`, the IC50 is > 10 µM (inactive).

Turning to `COCc1c(C(C)C)nc(C(C)C)c(/C=C/[C@@H](O)C[C@@H](O)CC(=O)O)c1-c1ccc(F)cc1`, the half-maximal inhibitory concentration (IC50) is 0.259 µM.

Turning to `CC(=O)O[C@@]12CO[C@@H]1C[C@H](O)[C@@]1(C)C(=O)[C@H](O)C3=C(C)[C@@H](OC(=O)[C@H](O)[C@@H](NC(=O)OC(C)(C)C)c4ccccc4)C[C@@](O)([C@@H](OC(=O)c4ccccc4)[C@H]21)C3(C)C`, the IC50 was > 10 µM (inactive).

On to `CCC(C)n1ncn(-c2ccc(N3CCN(c4ccc(OC[C@H]5CO[C@](Cn6cncn6)(c6ccc(Cl)cc6Cl)O5)cc4)CC3)cc2)c1=O` (stereo not given in full), for which the IC50 was > 10 µM (inactive).

Regarding `Cc1c(O)cc2c(c1C)O[C@](C)(CCC[C@H](C)CCC[C@H](C)CCCC(C)C)CC2`, the IC50 is > 10 µM (inactive).

Take `CN1CCN(c2cc3c(nn2)Oc2ccccc2N3C)CC1`: the IC50 is > 10 µM (inactive).

On to `CC(C)=CCOc1ccc(/C=C/C(=O)c2ccc(OCC=C(C)C)cc2OCC(=O)O)cc1`, for which the IC50 was > 10 µM (inactive).

Regarding `CCCCCCCCCCOCC(O)CN` (stereo not given), the IC50 was > 10 µM (inactive).

For the molecule `NC(=O)c1cccnc1`, the IC50 is > 10 µM (inactive).

In the case of `COC(=O)C1=C(C)NC(C)=C(C(=O)O[C@@H]2CCCN(Cc3ccccc3)C2)[C@@H]1c1cccc([N+](=O)[O-])c1`, the IC50 was > 10 µM (inactive).

As for `COc1cc(NCc2ccc3nc(N)nc(N)c3c2C)cc(OC)c1OC`, the IC50 is > 10 µM (inactive).

For the molecule `O=C(Nc1ccc(Oc2ccc(Cl)cc2)c(Cl)c1)c1cc(I)cc(I)c1O`, the IC50 is 6.57 µM (inactive).

As to `CCCCCCCCCCCCCCCCCCCCCC(=O)Nc1ccn([C@@H]2O[C@H](CO)[C@@H](O)[C@H]2O)c(=O)n1`, the IC50 was > 10 µM (inactive).

Take `O=C1CC[C@H](C(=O)N2CCCCC2)N1`: the IC50 is > 10 µM (inactive).

Regarding `Cc1ccc(O)cc1`, the IC50 is > 10 µM (inactive).

Consider `COc1cccc2c1C(=O)c1c(O)c3c(c(O)c1C2=O)C[C@@](O)(C(=O)CO)C[C@@H]3O[C@H]1C[C@H](N)[C@H](O[C@@H]2CCCCO2)[C@H](C)O1`, for which the IC50 was 0.995 µM.

With `O=C(NC1CCN(CCc2c[nH]c3ccccc23)CC1)c1ccccc1`, the IC50 was > 10 µM (inactive).

On to `CCCCCCCCCCCCCCCC[n+]1ccccc1`, for which the concentration for half-maximal inhibition (IC50) was 3.01 µM.

For the molecule `CC1=C(C(=O)OC(C)C)C(c2cccc([N+](=O)[O-])c2)C(C(=O)OC2CN(C(c3ccccc3)c3ccccc3)C2)=C(N)N1` (stereo not given), the IC50 is 7.39 µM (inactive).

For `Oc1c(I)cc(I)c2cccnc12`, the IC50 is > 10 µM (inactive).

On to `CC(C)=CCCC(C)=CCCC(C)=CCCC=C(C)CCC=C(C)CCC=C(C)C`, for which the IC50 was > 10 µM (inactive).

Turning to `Nc1cc(C(F)(F)F)ccc1S`, the IC50 was > 10 µM (inactive).

With `O=C(O)C1CCC1`, the IC50 was > 10 µM (inactive).

As to `O=C(O)CCCc1ccc(N(CCCl)CCCl)cc1`, the IC50 was > 10 µM (inactive).

`CN1CCN(CCCN2c3ccccc3Sc3ccc(C(F)(F)F)cc32)CC1`: the IC50 was > 10 µM (inactive).

With `CN(C)/N=N/c1nc[nH]c1C(N)=O`, the IC50 was > 10 µM (inactive).

The values are drawn from PubChem BioAssay AID1117324 (Cheminformatics & Chemogenomics Research Group (CCRG), …, 2015).
